Reference: PubChem BioAssay (NCI)
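Values below derive from 48-hour exposures of cells grown in 96-well plates, with endpoints linearly interpolated between the two concentrations bracketing the appropriate inhibition level. TGI marks complete inhibition of growth.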

Columns and labels:
Experiment in all cases: growth of human tumour cells (NCI), 48 h
[1] = test system: HT29 colon
[2] = test system: NCI/ADR-RES ovarian
[3] = test system: SK-MEL-5 melanoma
[4] = test system: UACC-62 melanoma
[5] = test system: SW-620 colon
[6] = test system: A498 renal
[7] = test system: MALME-3M melanoma
[8] = test system: UACC-257 melanoma
[9] = test system: NCI-H460 lung
[10] = test system: LOX IMVI melanoma
[11] = test system: SF-295 CNS
[12] = test system: U251 CNS
[13] = test system: SN12C renal
[14] = test system: MOLT-4 leukemia
[15] = test system: IGROV1 ovarian
[16] = test system: KM20L2 colon
[17] = test system: XF 498 CNS
[18] = test system: HOP-92 NSCLC
[19] = test system: NCI-H522 lung
[20] = test system: DMS 273 small cell lung

SMILES | TGI [1] [µM] | TGI [2] [µM] | TGI [3] [µM] | TGI [4] [µM] | TGI [5] [µM] | TGI [6] [µM] | TGI [7] [µM] | TGI [8] [µM] | TGI [9] [µM] | TGI [10] [µM] | TGI [11] [µM] | TGI [12] [µM] | TGI [13] [µM] | TGI [14] [µM] | TGI [15] [µM] | TGI [16] [µM] | TGI [17] [µM] | TGI [18] [µM] | TGI [19] [µM] | TGI [20] [µM]
O=C(/C=C/c1ccsc1)c1ccc(Cl)s1 | > 100 | > 100 | > 100 | > 100 | 55.5 | > 100 | > 100 | > 100 | > 100 | 37.1 | > 100 | > 100 | > 100 | 52 | > 100 |  |  |  |  | 
Cn1nc2ccc3nccc(NCCNCCCl)c3c2n1 | > 100 |  |  | > 100 | > 100 |  | > 100 |  | > 100 | > 100 | > 100 |  | > 100 | > 100 | > 100 | > 100 | > 100 | > 100 | > 100 | > 100
O=C(O)C1C2CCC(C2)C1c1ccccc1 (stereo not given) | > 100 | > 100 | > 100 | > 100 | > 100 | > 100 | > 100 | > 100 | > 100 | > 100 | > 100 | > 100 | > 100 | > 100 |  |  |  | > 100 | > 100 | 
CC1=NN(C(=O)c2ccccc2)C(=O)C1N=Nc1ccccc1C(=O)O (stereo not given) | > 100 | > 100 | > 100 | 22.9 | > 100 | > 100 | > 100 |  | > 100 | > 100 | > 100 | > 100 | > 100 | > 100 | > 78.1 | > 100 | 69.9 | > 100 | 38 | > 100
O=C(NN1C(=O)C(Cl)C1c1ccc([N+](=O)[O-])cc1)c1ccccc1O (stereo not given) | > 100 |  | > 100 | > 100 | > 100 |  | > 100 | > 100 | > 100 |  | > 100 | > 100 | > 100 | > 100 | > 100 | > 100 | > 100 | > 100 | > 100 | 
CCOC(=O)CCc1c(C)c2c(O)cc(O)cc2oc1=O | > 100 | > 100 | > 100 | > 100 | > 100 | > 100 | > 100 | > 100 | > 100 | > 100 | > 100 | > 100 | > 100 | > 100 | > 100 | > 100 | > 100 | > 100 | > 100 | > 100
COc1cc(C2c3cc4c(cc3[C@@H](Nc3ccc(N5CCOCC5)cc3)C3COC(=O)[C@H]23)OCO4)cc(OC)c1O (stereo not given in full) | 4.58 | 26.2 | 2.45 | 3.91 | 10.1 | 3.2 | 15 |  | 1.14 | 4.27 | 2.42 | 1.89 | 2.12 | 0.19 | 26 | 3.91 | 4.23 | 8.74 | 3.4 | 1.85
N/C(=N\N=C/c1cc(Cl)cc(Cl)c1O)NO | > 62.7 | 26.6 | 12.5 | 6.73 | 38.5 | 18.8 | 24 | 29.3 | 14.2 | 6.66 | 15.2 | > 100 | 33.4 | > 23 | 44.3 | 30.2 | 6.45 | 46.8 |  | 11.9
CCOC(=O)C1CCn2c(nc3c(=O)n(C)c(=O)n(C)c32)S1 (stereo not given) | > 100 |  | > 100 | > 100 | > 100 |  | > 100 | > 100 | > 100 | > 100 | > 100 | > 100 | > 100 | > 100 | > 100 | > 100 |  |  | > 100 | > 100
